In patent publication US8076363B2, “Isothiazolone-containing preservative with improved effectiveness” (Air Liquide Sante (International), priority 2005, dated 2011):

Assays:
[1] = system: mixed suspension of test germs (bacteria, yeasts, fungi); assay: Preserving effect under repeated inoculation in the standard gel; format: cell-based; parameters: key: −=no growth; −=slight growth; ++=moderate growth; +++=massive growth; conditions: preservative 0.1%
Experimental: CARBOPOL is dispersed in glycerol. In batches, the water and then NaOH are added thereto. The gel immediately becomes thick.
Using the described method, the effectiveness of chemical preservatives is tested with regard to the pack preservation for cosmetic formulations. For this purpose, in various experimental batches, the preservatives to be investigated are added to the unpreserved samples in various concentrations. A continuous germ burden is achieved by periodically inoculating the experimental batches. In parallel to the inoculation, streaks of each of the individual batches are in each case made immediately beforehand. Assessment is made by reference to the microbial growth of the streaks. […]
The microbial growth of the streaks incubated at 25° C.±2° C. is assessed after 3 to 4 days. […] The preserving effect of the individual product concentrations is assessed in a semiquantitative method by means of the growth of the individual streaks according to the grading from “−” via “+” to “+++”. […]
If even after five successive inoculation cycles growth can be detected neither in the preserved samples nor in the unpreserved product sample (blank value), then the inoculation in the sixth inoculation cycle is carried out with five times the amount of the mixed suspension (0.5 ml in the case of 25 g samples, 1 ml in the case of 50 g samples). […]

[2] = system: mixed suspension of test germs (bacteria, yeasts, fungi); assay: Preserving effect under repeated inoculation in humectant formulation 6940; format: cell-based; parameters: key: −=no growth; ++=moderate growth; +++=massive growth
Experimental: B) Humectant Formulation 6940
In accordance with Seppic formulation procedure, without preservative.
Using the described method, the effectiveness of chemical preservatives is tested with regard to the pack preservation for cosmetic formulations. For this purpose, in various experimental batches, the preservatives to be investigated are added to the unpreserved samples in various concentrations. A continuous germ burden is achieved by periodically inoculating the experimental batches. In parallel to the inoculation, streaks of each of the individual batches are in each case made immediately beforehand. Assessment is made by reference to the microbial growth of the streaks.
The bacteria are streaked uniformly over the entire surface of a CS nutrient medium using a sterile glass rod and incubated for 24 h at 30±1° C. The yeast C. albicans is streaked using a sterile glass rod on a Sabouraud nutrient medium and incubated for 48 h at 30±1° C.
The fungi A. niger and P. funiculosum are streaked using a sterile glass rod on one (A. niger) or two (P. funiculosum) Sabouraud plates (comprising 100 μg/ml of gentamycin and 50 μg/ml of chloramphenicol) and incubated for 7 to 14 days at 25±2° C.
To prepare the mixed suspensions, the bacteria, per strain one plate, are rinsed off with 5 ml of a sterile 0.85% NaCl solution per CSA plate, (sterile) filtered through a sterile glass funnel containing glass wool and made up to 150 ml with 0.85% NaCl solution. This bacteria suspension has a titre of ˜10^10 CFU/ml.
The yeast C. albicans is likewise rinsed off with 10 ml of sterile 0.85% NaCl solution from a Sabouraud plate and (sterile) filtered through a sterile glass funnel containing glass wool. 10 ml of each of the fungi suspensions (A. niger and P. funiculosum) prepared as described above are added to this suspension. 3 ml of the bacteria suspension prepared as described above (titre ˜10^10 CFU/ml) are added. The resulting mixed suspension is made to 150 ml with sterile 0.85% NaCl solution.
The bacteria titre of the mixed suspension is ˜10^8 CFU/ml. The titre for C. albicans in the mixed suspension is ˜10^8 CFU/ml. The titre for A. niger and P. funiculosum in the mixed suspension is ˜10^6 CFU/ml.
In separate batches, 25 or 50 g of the material to be preserved are in each case admixed with varying concentrations of the preservative to be investigated. The growth control used in each case is an unpreserved product sample.
The test batches are streaked onto CS and Sabouraud nutrient media once per week, the first streaking being carried out directly prior to reinoculation; these batches are then inoculated with the mixed suspension (in the case of 25 g samples with 0.1 ml, in the case of 50 g samples with 0.2 ml). The inoculated samples are incubated at 25° C.±2° C. over the entire experimentation period.
The microbial growth of the streaks incubated at 25° C.±2° C. is assessed after 3 to 4 days. To be on the safe side, negative streaks are observed for a further 2 days and reassessed. The preserving effect of the individual product concentrations is assessed in a semiquantitative method by means of the growth of the individual streaks according to the grading from “−” via “+” to “+++”. The test is usually carried out over 6 inoculation cycles or terminated after massive growth (+++) on two occasions.
If even after five successive inoculation cycles growth can be detected neither in the preserved samples nor in the unpreserved product sample (blank value), then the inoculation in the sixth inoculation cycle is carried out with five times the amount of the mixed suspension (0.5 ml in the case of 25 g samples, 1 ml in the case of 50 g samples).
A preservative is considered good if it exists under the laboratory conditions given above for a period of 6 weeks without germ infestation of the sample batches, i.e. even after the sixth inoculation, no microbial growth can be detected.

CCCCC(CC)COCC(O)CO (centres unmarked) [SENSIVA, 1-(2-ethylhexyl) glycerol ether]
microbial growth of the streaks ([1]; 10 days): +++
microbial growth of the streaks ([1]; 17 days): +++
microbial growth of the streaks ([2]; formulation 6940, preservative 0.1%, 4 days): −
microbial growth of the streaks ([2]; formulation 6940, preservative 0.1%, 10 days): +++
microbial growth of the streaks ([2]; formulation 6940, preservative 0.1%, 17 days): +++
microbial growth of the streaks ([2]; formulation 6940, preservative 0.2%, 4 days): −
microbial growth of the streaks ([2]; formulation 6940, preservative 0.2%, 10 days): +++
microbial growth of the streaks ([2]; formulation 6940, preservative 0.2%, 17 days): +++
microbial growth of the streaks ([2]; formulation 6940, preservative 0.3%, 4 days): −
microbial growth of the streaks ([2]; formulation 6940, preservative 0.3%, 10 days): +++
microbial growth of the streaks ([2]; formulation 6940, preservative 0.3%, 17 days): +++
